Test results: patent US10294212B2 (CURADEV PHARMA PRIVATE LTD., priority 2013, dated 2019)

Columns and labels:
IDO1 in HeLa cells = IDO1 in HeLa cells (Homo sapiens (Human), UniProt P14902); assay: HeLa cell based IDO1 assay (IFNγ-induced, KYN in supernatant)
Method in brief: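 Kynurenine in the supernatant, quantified by C-18 HPLC with 360 nm absorbance after TCA hydrolysis (65 °C, 15 min), was the read-out. Compounds (typically 10 μM to 1 nM) were added in HBSS containing 80 μM tryptophan to HeLa cells pre-induced overnight with 50 ng/mL IFNγ. IC50 came from nonlinear fits of % inhibition versus 1% DMSO vehicle.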

[1] = biological target: Human indoleamine 2,3-dioxygenase1 (hIDO1) (Homo sapiens (Human), UniProt P14902); assay: In-vitro IDO1 enzyme assay (conversion of L-tryptophan to KYN); assay type: biochemical; conditions: read-out: IC50 (IDO1) Enz
Chain of Human indoleamine 2,3-dioxygenase1 (hIDO1) (P14902 whole entry): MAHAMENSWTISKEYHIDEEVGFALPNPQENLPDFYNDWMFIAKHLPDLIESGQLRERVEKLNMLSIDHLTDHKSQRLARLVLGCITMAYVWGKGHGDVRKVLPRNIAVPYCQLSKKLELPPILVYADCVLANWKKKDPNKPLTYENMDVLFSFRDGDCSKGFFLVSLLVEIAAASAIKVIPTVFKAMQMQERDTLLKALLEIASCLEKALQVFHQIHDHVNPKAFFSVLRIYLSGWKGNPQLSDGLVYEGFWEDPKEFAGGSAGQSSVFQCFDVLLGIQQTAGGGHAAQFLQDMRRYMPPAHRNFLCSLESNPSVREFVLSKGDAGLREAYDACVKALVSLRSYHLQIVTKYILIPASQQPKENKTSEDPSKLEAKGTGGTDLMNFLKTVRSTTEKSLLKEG
Method in brief: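 Kynurenine formation quantified by HPLC absorbance at 360 nm or LC/MS/MS after TCA quench and 15 min at 65 °C. Reaction: 10 nM N-His hIDO1, 30 μM tryptophan, ascorbate/methylene blue/catalase, pH 6.5 phosphate buffer, 37 °C for 30 min. Inhibition relative to 1% DMSO vehicle, fitted to IC50.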

CT-26 tumor cells = assay: Antitumor activity in syngeneic CT26/Balb/C tumor model; assay type: in vivo, Balb/c mice; conditions: for reduction of tumor growth: vs control animals
Description: Tumor volume reduction by the test compounds was evaluated in a syngeneic CT26/Balb/C tumor model as described below. Balb/c mice were purchased from Vivo Bio Tech, Hyderabad, India, and housed in sterile conditions using an individually ventilated caging system manufactured by Citizen Industries Limited, Ahmedabad, India. Mice were quarantined for at least 7 days before experimentation.
Mouse colorectal tumor forming cells, CT-26 cells (ATCC, USA), were cultured in DMEM and 10% FBS medium supplemented with lx non-essential amino acid (HiMedia) in an incubator maintained at 37QC with 95% humidity and 5% CO2. One million (1×10^6) live syngeneic CT-26 cells suspended in 0.2 ml of […] were injected subcutaneously in the right flank of each Balb/c mouse (age 6-8 weeks, weight: about 18-20 g) on day 1 under anesthesia. Eight to ten mice were used per experimental group. Subcutaneous cells formed localized tumors. Animals were visually inspected twice a day. Tumor measurements were initiated 7 days post injection using Vernier calipers. Tumor sizes at day 7 ranged typically from 80-150 mm^3. Tumor dimensions were subsequently measured every 3 to 4 days and tumor volume was determined. Assuming tumors to be ellipsoid, tumor volume was calculated using the formula: V=(D×d×d)/2
Where D is longest diameter in mm, and d is shortest diameter in mm.
When the average tumor volume in the mice reached 100-120 mm^3, tumor bearing mice were randomized for treatment with either test compound or vehicle alone. Test compounds were formulated generally in normal saline comprising Polyethylene Glycol (PEG400), Propylene glycol (PG) and Dimethyl Acetamide (DACM) at pH 4.5-5.0 and dosed orally at ranges 40-75 mg/kg (dose volume—5 mL/kg) twice a day. Solutions of the compounds were prepared immediately before dosing the animals. In general, tumor volume was measured at various times post-dosing from day 1 to day 34.
A non-limiting example is provided. Tumor bearing mice were dosed orally twice a day at 40 mg/kg body weight with either vehicle control or test compound 2 formulated in 30% Polyethylene Glycol (PEG-400), 20% Propylene glycol (PG) in normal saline. Tumors were measured and tumor volumes were determined at 1, 4, 6, 9, 11, and 14 days after the first dose as described above. Animals were sacrificed on day 14. Tumor and blood samples were harvested for further analysis. Just prior to animal sacrifice, blood was drawn retro-orbitally into a tube containing 0.2% EDTA for plasma collection. The harvested tumors were weighed and snap frozen in liquid nitrogen immediately. Plasma KYN concentrations are measured for pharmacokinetic analysis using LC/MS/MS using an API4000 mass spectrometer (Applied Biosystems) coupled to a Shimadzu Prominence LC system fitted with a C18 column.

Chain of IDO1 in HeLa cells (P14902 whole entry): as above

Row | IC50 (IDO1 in HeLa cells) | IC50 [1] | Structure (SMILES) | reduction of tumor growth (CT-26 tumor cells; 50 mg/kg oral BID) | reduction of tumor growth (CT-26 tumor cells; 75 mg/kg oral BID) | tumor growth (CT-26 tumor cells; 40 mg/kg oral BID, over 14 days, vs vehicle)
1 | < 200 nM | < 200 nM | Nc1oc2c(-c3ccncc3)nccc2c1Nc1ccc(F)c(F)c1 [Compound 184, N^3-(3,4-difluorophenyl)-7-(pyridin-4-yl)furo[2,3-c]pyridine-2,3-diamine] | 26%-38 |  | 
2 | < 200 nM | < 200 nM | Nc1oc2c(-c3ccncc3)nccc2c1Nc1ccc(F)c(Cl)c1 [Compound 97, N^3-(3-Chloro-4-fluorophenyl)-7-(pyridin-4-yl)furo[2,3-c]pyridine-2,3-diamine] |  | 26%-38 | 
3 | < 200 nM | < 200 nM | Nc1oc2cnccc2c1Nc1ccc(F)c(Cl)c1 [Compound 2, N^3-(3-Chloro-4-fluoro-phenyl)-furo[2,3-c]pyridine-2,3-diamine] |  |  | significantly decreased tumor growth
